Assay results taken from ChEMBL document CHEMBL1201862, “PubChem BioAssay data set” (2004).
Structures can show the parent of a compound that is named as a salt. Active and inactive are the calls of the source.

Columns and labels:
[1] = P. falciparum 3D7-ScDHODH growth inhibitors, dose response, SYBR Green, dry powder samples (AID 1159570); type: functional, cell-based;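 also: parasite growth measured after 72 hours of compound exposure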
[2] = HepG2 cell cytotoxicity, dose response, cytotoxicity control, plate reader, dry powder samples (AID 1159569); type: functional, cell-based;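 also: inhibitor potency with signal falling toward the positive control level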
[3] = P. falciparum Dd2 growth inhibitors, dose response, SYBR Green, cherry-picked samples (AID 1159567); type: functional, cell-based
[4] = P. falciparum Dd2 growth inhibitors, dose response, SYBR Green, dry powder samples (AID 1159566); type: functional, cell-based;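 also: potency for growth inhibition with lower SYBR green DNA signal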
[5] = HepG2 cell cytotoxicity, dose response, cytotoxicity control, cherry-picked samples (AID 1159577); type: functional, cell-based
[6] = P. falciparum ATP4 D1247Y mutant growth inhibitors, dose response, NITD609-resistant line, SYBR Green, dry powder (AID 1159571); type: functional, cell-based;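 also: parasites synchronized at ring stage by sorbitol before testing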
[7] = A549 cell cytotoxicity, dose response, cytotoxicity control, 24 h, CellTiter-Glo luminescence, cherry-picks (AID 1053115); type: functional, cell-based; conditions: A549, 24 h
HT-1080 = assay: cytotoxicity in HT1080 fibrosarcoma cells, cell-based, fluorescence readout (AID 620); type: functional; conditions: Homo sapiens
[8] = Vero cell cytotoxicity, dose response, cytotoxicity control for Vif-APOBEC3G degradation inhibitor project, Vero cells (AID 1117358); type: functional; conditions: Human immunodeficiency virus 1, Vero
[9] = P. falciparum late gametocyte killing, dose response, luminescence (AID 1117278); type: functional, cell-based;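 also: gametocytes exposed to compound for 24 hours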
[10] = Jurkat T cell cytotoxicity, dose response, cytotoxicity control for P. falciparum gametocyte viability project, luminescence (AID 1117277); type: functional, cell-based;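 also: potency reflects loss of cellular ATP meaning fewer viable cells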
[11] = P. falciparum Dd2 growth inhibitors, dose response, SYBR Green, dry powder samples, set 9 (AID 1159568); type: functional, cell-based
[12] = Late-stage results from the probe development effort to identify antagonists of arginine vasopressin receptor 1a (AVPR1a): fluorescence-based cell-based dose response AVPR1a inhibition assay.; type: functional
Vasopressin V1b receptor = Vasopressin V1b receptor (Homo sapiens, UniProt P47901); assay: Late-stage results from the probe development effort to identify antagonists of arginine vasopressin receptor 1a (AVPR1a): fluorescence-based cell-based dose response AVPR1b inhibition counterscreen assay.; type: functional
Vasopressin V2 receptor = Vasopressin V2 receptor (Homo sapiens, UniProt P30518); assay: Late-stage results from the probe development effort to identify antagonists of arginine vasopressin receptor 1a (AVPR1a): fluorescence-based cell-based dose response AVPR2 inhibition counterscreen assay.; type: functional
[13] = Late-stage results from the probe development effort to identify antagonists of arginine vasopressin receptor 1a (AVPR1a): fluorescence-based cell-based dose response OXTR inhibition counterscreen assay.; type: functional
[14] = biological target: E3 ubiquitin-protein ligase Mdm2 (Homo sapiens, UniProt Q00987); assay: enhancers of MDM2-luciferase reporter signal, concentration-effect titration, project on inhibitors of MDM2 ubiquitin ligase, cellular assay, luminescent readout, 384-well plate format (AID 1394); type: functional;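 also: MDM2 E3 inhibitors raise luminescence so EC50 is for signal enhancement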
[15] = Concentration-dependent survival of SW480 colon cancer line, luminescence detection with CellTiter-Glo, half-maximal inhibitory concentration (AID 1117338); type: functional
[16] = RKO cell viability reduction, dose response, CellTiter-Glo luminescence (AID 1117322); type: functional
[17] = cytotoxicity toward HCT116 cells – cell-based, CellTiter-Glo luminescence, IC50, dose response (AID 1117332); type: functional; conditions: HCT-116
[18] = SNU-C1 cell viability reduction, dose response, CellTiter-Glo luminescence (AID 1117323); type: functional, cell-based
[19] = half-maximal inhibitory concentration for glucagon-like peptide-1 release, STC-1 cell line, dose-response (AID 1117345); type: functional, cell-based
[20] = cytotoxicity toward Colo320 cells – cell-based, CellTiter-Glo luminescence, IC50, dose response (AID 1117334); type: functional; conditions: COLO 320
[21] = cytotoxicity toward HT-29 cells – cell-based, CellTiter-Glo luminescence, IC50, dose response (AID 1117330); type: functional
[22] = CellTiter-Glo luminescent dose response of DLD-1 viability loss (AID 1117352); type: functional
[23] = HCT116 cell viability decrease, GSK3B pretreatment – CellTiter-Glo, IC50, dose response (AID 1117339); type: functional; conditions: HCT-116
[24] = Glucagon-like peptide 1 release potency, NCI-H716 cell line, dose-response, half-maximal inhibitory concentration (AID 1117344); type: functional, cell-based

Chain of E3 ubiquitin-protein ligase Mdm2 (Q00987 whole entry): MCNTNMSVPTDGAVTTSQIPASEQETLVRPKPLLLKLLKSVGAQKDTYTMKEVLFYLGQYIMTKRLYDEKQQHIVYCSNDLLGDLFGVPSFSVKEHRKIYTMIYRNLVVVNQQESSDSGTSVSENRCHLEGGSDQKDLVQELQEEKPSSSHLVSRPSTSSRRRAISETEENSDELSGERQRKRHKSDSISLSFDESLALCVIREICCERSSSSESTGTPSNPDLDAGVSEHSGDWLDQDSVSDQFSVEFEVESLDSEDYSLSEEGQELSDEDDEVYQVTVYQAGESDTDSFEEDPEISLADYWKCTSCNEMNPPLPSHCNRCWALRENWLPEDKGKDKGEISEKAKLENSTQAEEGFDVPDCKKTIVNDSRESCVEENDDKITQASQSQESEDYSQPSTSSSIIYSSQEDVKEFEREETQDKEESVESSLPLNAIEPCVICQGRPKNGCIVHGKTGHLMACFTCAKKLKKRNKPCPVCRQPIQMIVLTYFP
Chain of Vasopressin V1b receptor (P47901 whole entry): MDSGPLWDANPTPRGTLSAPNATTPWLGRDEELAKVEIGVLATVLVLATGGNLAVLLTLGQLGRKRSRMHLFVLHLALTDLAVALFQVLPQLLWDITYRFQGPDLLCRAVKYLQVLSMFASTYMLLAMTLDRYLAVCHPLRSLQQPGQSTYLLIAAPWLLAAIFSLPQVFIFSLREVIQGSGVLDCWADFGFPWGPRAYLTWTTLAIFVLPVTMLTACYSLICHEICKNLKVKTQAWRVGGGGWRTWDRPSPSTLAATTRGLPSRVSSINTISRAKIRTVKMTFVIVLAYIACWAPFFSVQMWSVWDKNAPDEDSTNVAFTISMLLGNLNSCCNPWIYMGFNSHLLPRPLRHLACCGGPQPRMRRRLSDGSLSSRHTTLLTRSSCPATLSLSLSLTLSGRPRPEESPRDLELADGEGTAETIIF
Chain of Vasopressin V2 receptor (P30518 whole entry): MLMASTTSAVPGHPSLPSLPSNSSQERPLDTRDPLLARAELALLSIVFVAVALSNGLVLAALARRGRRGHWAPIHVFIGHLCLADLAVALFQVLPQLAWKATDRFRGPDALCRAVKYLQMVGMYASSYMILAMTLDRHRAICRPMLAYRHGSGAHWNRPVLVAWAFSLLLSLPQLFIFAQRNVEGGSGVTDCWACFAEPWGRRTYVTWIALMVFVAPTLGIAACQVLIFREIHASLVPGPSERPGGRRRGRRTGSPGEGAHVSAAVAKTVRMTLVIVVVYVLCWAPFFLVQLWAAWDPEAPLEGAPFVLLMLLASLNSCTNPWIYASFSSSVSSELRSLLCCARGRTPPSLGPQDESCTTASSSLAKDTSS

Compound: COc1ccc(C#Cc2ccc([C@@H]3[C@H](CO)N4CCCCN(C(=O)Nc5ccccc5F)C[C@@H]34)cc2)cc1
- AC50 [1]: 1.02 µM (active)
- AC50 [2]: 8.16 µM (active)
- AC50 [3]: 1.42 µM (active)
- AC50 [4]: 0.898 µM (active)
- AC50 [5]: 9.73 µM (active)
- AC50 [6]: 0.771 µM (active)

Compound: N#Cc1ccc(-c2ccc3c(c2)[C@H]2[C@H](CCN2C(=O)C2CCCCC2)[C@@H](CO)N3)cc1
- AC50 [7]: 48.7 µM (active)

Compound: Cc1ccc(NC2=Nc3ccccc3CC2)cc1
- EC50 (HT-1080): > 50 µM (not active)

Compound: C[C@@H](O)C#Cc1ccc2c(c1)O[C@@H](CN(C)Cc1ccccc1)[C@@H](C)CN([C@@H](C)CO)S2(=O)=O
- AC50 [7]: > 60 µM (inactive)

Compound: Cc1cc(Cl)c(S(=O)(=O)NCC2CCCO2)cc1OCC(=O)NC1CCCCC1 (stereo not drawn)
- CC50 [8]: > 40 µM (active)

Compound: Cc1nc2nc(C)c(CCC(=O)NC3CCCCC3)c(C)n2n1
- IC50 [9]: > 109 µM (inactive)
- IC50 [10]: > 83.4 µM (inactive)

Compound: COc1ccc(C#Cc2ccc([C@@H]3[C@@H](CO)N4CCCCN(C(=O)Nc5cccc(F)c5)C[C@H]34)cc2)cc1
- AC50 [1]: 0.738 µM (active)
- AC50 [2]: 7.51 µM (active)
- AC50 [11]: 1.35 µM (active)
- AC50 [3]: 1.66 µM (active)
- AC50 [4]: 0.083 µM (active)
- AC50 [6]: 0.698 µM (active)

Compound: O=C(N1CCC2(CC1)OCc1ccccc12)N(CC1CC1)c1ccccc1
- IC50 [12]: 0.466 µM (active)
- IC50 (Vasopressin V1b receptor): 25.1 µM (inactive)
- IC50 (Vasopressin V2 receptor): 20 µM (inactive)
- IC50 [13]: 20 µM (inactive)

Compound: CC1=C(C(=O)NC(C)CCc2ccccc2)C2(CCC(C)CC2)OC1=O (stereo not drawn)
- EC50 [14]: 78.3 µM (not active)

Compound: C[C@@H]1CN(CCCn2c3ccccc3c3ccccc32)C[C@H](C)N1 [RIMCAZOLE HYDROCHLORIDE]
- IC50 [15]: 2.35 µM (active)
- IC50 [16]: 2.18 µM (active)
- IC50 [17]: 10.5 µM (inactive)
- IC50 [18]: 6.02 µM (inactive)
- IC50 [19]: > 40 µM (inactive)
- IC50 [20]: 15.9 µM (inactive)
- IC50 [21]: 4.02 µM (active)
- IC50 [22]: 9.8 µM (inactive)
- IC50 [23]: 3.85 µM (active)
- IC50 [24]: 6.37 µM (inactive)
